The text below walks through data of patent publication US7943797B2, “Products for the treatment of the iron chlorosis” (Tradecorp, S.A., priority 2006, dated 2011).

For data set [1] the following is noted: compared with o,o-EDDHA/Fe^3+; Yunta et al. 2003; cited from earlier work.
Data set [2] deals with Soybean plants (Glycine max L. cv. Stine 0480) with induced Fe chlorosis. The data set is described as follows: Efficacy of Fe chelates to provide Fe to soybean plants in soil conditions: SPAD index. It counts as in vivo. Particulars: for SPAD index / Recovery from chlorosis (SPAD): calcareous soil; for Recovery from chlorosis (SPAD): two days after the treatment application. As to the method:
(§1) Soybean seeds (Glycine max L. cv. Stine 0480) were germinated at 30° C. and 60% RH on paper moistened with 1 M CaSO4 in dark for 2 days. Afterwards, seedlings were placed in 10 L containers (50 seedlings per container) filled with a 1/5 diluted EDTA buffered nutrient solution (macronutrients (mM)—1.0 Ca(NO3)2, 0.9 KNO3, 0.3 MgSO4, 0.1 KH2PO4; cationic micronutrients (μM)—5.0 EDTA/Fe^3+, 2.5 MnSO4, 1.0 CuSO4, 10 ZnSO4, 1.0 CoSO4, 1.0 NiCl2, 115.5 Na2EDTA; anionic micronutrients (μM)—35 NaCl, 10 H3BO3, 0.05 Na2MoO4; 0.1 mM HEPES) for 4 days. Then, in order to induce Fe chlorosis, nutrient solution without iron was used for two more days and then plants were transplanted in 1 L pots (3 plants per pot) containing 700 g of a calcareous soil ([…] calcium carbonate, 89 g·Kg^−1 CaCO3 active, pH 7.70) and 300 g of lime sand covered with black plastic to avoid light exposure. The effect of different Fe chelates were compared as Fe sources: o,o-EDDHA/Fe^3+, o,p-EDDHA/Fe^3+, EDTA/Fe^3+ and Example 1/Fe^3+. The last one is the Fe chelate of the compound of the example 1: 2-(2-((2-hydroxybenzyl)amino)ethylamino)-2-(2-hydroxyphenyl)acetic acid. Plants were grown for 21 days in this soil conditions in a growth chamber provided with fluorescent and sodium vapour lamps with a 16 h/30° C. and 50% humidity day and 8 h/25° C. and 70% humidity night regime. Treatments were replicated five times in a completely randomised design. Single plants were harvested after 2, 7 and 21 days.
During the experiment, SPAD readings with a chlorophyll-meter (Minolta SPAD-502) were taken for all leaf stages (average of two or three readings per stage) every second day. Values measured for the 2nd stage at the 2nd day, the third at the 12th day and the fourth and fifth at the 22th day) are here presented (Table 4).

The test system is the same in data set [3]. The data set is described as follows: Efficacy of Fe chelates to provide Fe to soybean plants in hydroponics: SPAD index. The settings on record: for Regreening of plants (SPAD index): 20 days after treatment, regardless of the doses (5 and 10 μM). It counts as in vivo. The procedure: (§2) Soybean seeds (Glycine max L. cv. Stine 0480) were germinated at 30° C. and 60% RH on paper moistened with 1 M CaSO4 in dark for 2 days. Afterwards, seedlings were placed in 10 L containers (50 seedlings per container) filled with a 1/5 diluted EDTA buffered nutrient solution (macronutrients (mM)—1.0 Ca(NO3)2, 0.9 KNO3, 0.3 MgSO4, 0.1 KH2PO4; cationic micronutrients (μM)—5.0 EDTA/Fe^3+, 2.5 MnSO4, 1.0 CuSO4, 10 ZnSO4, 1.0 CoSO4, 1.0 NiCl2, 115.5 Na2EDTA; anionic micronutrients (μM)-35 NaCl, 10 H3BO3, 0.05 Na2MoO4; 0.1 mM HEPES) for 6 days. On the 7th day, in order to induce Fe chlorosis, seedlings were transferred to 12 L polypropylene buckets containing aerated full strength EDTA buffered nutrient solution but without Fe^3+-chelate. Plants were grown under these conditions until clear symptoms of Fe deficiency were observed (7 days) and then plants were placed in 2 L pots (6 plants per pot) covered with black plastic to avoid light exposure. The effect of different Fe chelates and doses were compared as Fe sources. Chelates used in the treatments were o,o-EDDHA/Fe^3+, o,p-EDDHA/Fe^3+, EDTA/Fe^3+ and Example 1/Fe^3+. The last one is the Fe chelate of the compound of the example 1: 2-(2-((2-hydroxybenzyl)amino)ethylamino)-2-(2-hydroxyphenyl)acetic acid (DCHA). Nutrient solution contained macronutrients and anionic micronutrients as for the seedling period and the following cationic micronutrients composition: (μM) 1.0 MnSO4, 0.5 CuSO4, 0.5 ZnSO4, 0.1 NiCl2 and 0.1 CoSO4. Also, 1 g·L^−1 of CaCO3 was added to the nutrient solution to buffer pH at 7.5 and to simulate conditions of a calcareous soil. Plants were grown for 21 days in this nutrient solution in a growth chamber provided with fluorescent and sodium vapour lamps with a 16 h/30° C. and 50% humidity day and 8 h/25° C. and 70% humidity night regime. Water was added every 2 days and the nutrient solution was renewed every 7 days. Treatments were replicated four times in a completely randomised design. Plants were harvested after 7, 14 and 21 days.
During the experiment, SPAD readings with a chlorophyll-meter (Minolta SPAD-502) were taken for all leaf stages (average of two or three readings per stage) every second day. Only values measured for the youngest fully open leaves (the 2nd stage at the 2nd day, the third at the 10th day and the fourth at the 20th day) are here presented (Table 1)

Data set [4] has the same test system. In words: Efficacy of Fe chelates to provide Fe to soybean plants in hydroponics: Fe content in plants. It counts as in vivo. As to the method:
as §2
Root and shoot were separated and washed using Tween 80 (Merck) and HCl solution and fresh and dry (after oven dry procedure) weights were determined. Samples were ground and after dry digestion in a muffle furnace (480° C.), ashes are dissolved in HCl. Fe, Mn, Cu and Zn were analysed by atomic absorption spectrometry.

The test system is the same in data set [5]. In words: Efficacy of Fe chelates in soil conditions: shoot dry weight and Fe concentration in leaves. It counts as in vivo. Particulars: calcareous soil, three sampling times. As to the method:
as §1, with “Plants were grown for 21 days in this soil conditions in a growth chamber provided with fluorescent and sodium vapour lamps with a 16 h/30° C. and 50% humidity day and 8 h/25° C. and 70% humidity night regime. Treatments were replicated five times in a completely randomised design. Single plants were harvested after 2, 7 and 21 days.” left out
In each sampling time shoots were separated and washed using Tween 80 (Merck) and HCl solution and fresh and dry (after oven dry procedure) weights were determined. […] Fe, Mn, Cu and Zn were analysed by atomic absorption spectrometry.

[6] abbreviates: 2 days after treatment (2nd stage).
[7] abbreviates: 12 days after treatment (3rd stage).
Where [8] appears, read: 22 days after treatment (4th stage).
Setting [9] is: 22 days after treatment (5th stage).
The mark [10] stands for this setting: 5 μM chelate, 2 days after treatment (2nd stage).
[11] abbreviates: 5 μM chelate, 10 days after treatment (3rd stage).
[12] abbreviates: 5 μM chelate, 20 days after treatment (4th stage).
Where [13] appears, read: 10 μM chelate, 2 days after treatment (2nd stage).
Where [14] appears, read: 10 μM chelate, 10 days after treatment (3rd stage).
Where [15] appears, read: 10 μM chelate, 20 days after treatment (4th stage).
The mark [16] stands for this setting: 5 μM chelate (low dose), 1st sampling 7 days after treatment.
[17] abbreviates: 5 μM chelate (low dose), 2nd sampling 14 days after treatment.
Where [18] appears, read: 5 μM chelate (low dose), 3rd sampling 21 days after treatment.
Setting [19] is: 10 μM chelate (high dose), 1st sampling 7 days after treatment.
Where [20] appears, read: 10 μM chelate (high dose), 2nd sampling 14 days after treatment.
Where [21] appears, read: 10 μM chelate (high dose), 3rd sampling 21 days after treatment.

On to `O=C([O-])C(NCCNC(C(=O)[O-])c1ccccc1[O-])c1ccc(O)cc1.[Fe+3]` (stereo not shown) [o,p-EDDHA/Fe^3+], for which the “Stability of the Fe3+ chelate” value in data set [1] is “lower stability”. For the same compound, the SPAD index is 25.8 in data set [2] (setting [6]); 41.2 in data set [2] (setting [7]); 33.0 in data set [2] (setting [8]); 21.0 in data set [2] (setting [9]); 8.1 abc in data set [3] (setting [10]); 30.9 ab in data set [3] (setting [11]). The SPAD index in data set [3] (setting [12]) turned out to be 32.2 a; in data set [3] (setting [13]), 10.4 a; in data set [3] (setting [14]), 33.1 a; in data set [3] (setting [15]), 32.9 a. Besides, the “Recovery from chlorosis (SPAD)” value in data set [2] is on record as “better recovery”. In addition, the “Regreening of plants (SPAD index)” value in data set [3] is reported as “completely regreened”. The Fe content came to 43.0 ab μg Fe per plant in data set [4] (setting [16]); 128 a μg Fe per plant in data set [4] (setting [17]); 223 b μg Fe per plant in data set [4] (setting [18]); 77.8 a μg Fe per plant in data set [4] (setting [19]); 129 a μg Fe per plant in data set [4] (setting [20]); 259 a μg Fe per plant in data set [4] (setting [21]).

Take `O=C([O-])C(NCCNCc1ccccc1[O-])c1ccccc1[O-].[Fe+3]` (stereo not shown) [Example 1/Fe^3+]: the SPAD index is reported as 23.9 in data set [2] (setting [6]); 41.0 in data set [2] (setting [7]); 34.1 in data set [2] (setting [8]); 26.6 in data set [2] (setting [9]); 8.4 abc in data set [3] (setting [10]); 32.8 a in data set [3] (setting [11]). The SPAD index turned out to be 34.8 a in data set [3] (setting [12]), 8.8 ab in data set [3] (setting [13]), 35.7 a in data set [3] (setting [14]) and 35.0 a in data set [3] (setting [15]). In addition, in data set [2], the “Recovery from chlorosis (SPAD)” value was “better recovery”. Besides, the “Dry weight of shoots (FIG. 2)” value in data set [5] is listed as “efficient Fe chlorosis corrector”. Moreover, the Fe content in data set [4] (setting [16]) was 57.4 a μg Fe per plant; in data set [4] (setting [17]) it was 152 a μg Fe per plant; in data set [4] (setting [18]), 268 a μg Fe per plant; in data set [4] (setting [19]), 69.3 a μg Fe per plant; in data set [4] (setting [20]), 136 a μg Fe per plant; in data set [4] (setting [21]), 235 a μg Fe per plant. The “Fe provided to plants compared with the other treatments” value in data set [4] (hydroponics, lower Fe application (5 μM)) was “significantly higher amounts of iron and faster”.

As for `O=C(O)C(NCCNCc1ccccc1O)c1ccccc1O` (stereo not shown) [Example 1, 2-(2-((2-hydroxybenzyl)amino)ethylamino)-2-(2-hydroxyphenyl)acetic acid], the “Efficacy against iron chlorosis” value in data set [2] (highly calcareous soil, only one treatment application) is on record as “efficient to solve iron chlorosis in highly calcareous conditions”. Besides, the “Regreening of plants (SPAD index)” value in data set [3] is on record as “completely regreened”. Besides, the “Speed of action to correct iron chlorosis” value in data set [3] (low doses, similar to o,p-EDDHA, higher than o,o-EDDHA) is reported as “fast action to correct iron chlorosis”.

Turning to `O=C([O-])C(NCCNC(C(=O)[O-])c1ccccc1[O-])c1ccccc1[O-].[Fe+3]` (stereo not shown) [o,o-EDDHA/Fe^3+], the SPAD index in data set [2] (setting [6]) is recorded as 22.4; in data set [2] (setting [7]) it was 42.1; in data set [2] (setting [8]) it was 34.1; in data set [2] (setting [9]) it was 28.8; in data set [3] (setting [10]), 6.2 cd; in data set [3] (setting [11]), 26.7 b. The SPAD index in data set [3] (setting [12]) stood at 30.2 a; in data set [3] (setting [13]) it was 9.1 ab; in data set [3] (setting [14]), 31.6 ab; in data set [3] (setting [15]), 32.4 a. The “Regreening of plants (SPAD index)” value in data set [3] is listed as “completely regreened”. Besides, the Fe content is 26.0 bc μg Fe per plant in data set [4] (setting [16]); 83.6 b μg Fe per plant in data set [4] (setting [17]); 202 b μg Fe per plant in data set [4] (setting [18]); 61.4 a μg Fe per plant in data set [4] (setting [19]); 129 a μg Fe per plant in data set [4] (setting [20]); 254 a μg Fe per plant in data set [4] (setting [21]).

For the compound `O=C([O-])CN(CCN(CC(=O)[O-])CC(=O)[O-])CC(=O)[O-].[Fe+3]` [EDTA/Fe^3+], the SPAD index in data set [3] (setting [10]) came to 6.8 bcd; in data set [3] (setting [11]), 6.9 days; in data set [3] (setting [12]) it was 11.4 c; in data set [3] (setting [13]), 8.1 abc; in data set [3] (setting [14]) it was 16.6 c; in data set [3] (setting [15]), 19.9 b. The Fe content in data set [4] (setting [16]) stood at 14.2 c μg Fe per plant; in data set [4] (setting [17]), 19.6 c μg Fe per plant; in data set [4] (setting [18]), 22.6 c μg Fe per plant; in data set [4] (setting [19]) it was 27.7 b μg Fe per plant; in data set [4] (setting [20]), 32.6 b μg Fe per plant; in data set [4] (setting [21]) it was 47.6 b μg Fe per plant.
